Test results from patent US20110229531A1, “ANTI-PROTOZOA COMPOUNDS” (priority 2009, published 2011).
pIC50: −log10 of the molar value.

Tested on: Acanthamoeba
Assay: Acanthamoeba growth inhibition, alamarBlue reduction
Assay type: cell-based, Acanthamoeba castellanii
Source text: Furthermore, inhibition was ablated in a dose dependent manner by the addition of histidine to the medium.

Row | SMILES | toxicity of histidine to Acanthamoeba (100 mM histidine) | effect of 3AT on growth in the presence of histidine (10 mM histidine added, 0.98 mM 3-AT, alamarBlue reduction) | IC20 (Acanthamoeba, read-out: IC20 of 3-AT) [µM] | pIC50 (Acanthamoeba, absence of histidine, percentage of alamarBlue reduction) | concentration required to significantly (p<0.05) inhibit A. castellanii growth (in the presence of 1 mM Histidine) [mM] | growth of Acanthamoeba (medium without histidine, inhibition ablated dose dependently by added histidine) | concentration that significantly (p<0.05) inhibited A. castellanii growth (no histidine, compared with untreated control cultures, dose dependent) [mM]
1 | N[C@@H](Cc1c[nH]cn1)C(=O)O [histidine] | toxic |  |  |  |  |  | 
2 | Nc1nc[nH]n1 [3-AT, 3-amino-1,2,4-triazole] |  | significantly (p<0.05) ablated the effect of 3AT | 980 | 4.51 to 4.82 | ≥ 0.06 | inhibits growth | ≥ 0.00095
